Experimental data taken from PubChem BioAssay (NCI).
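Five concentrations, 48 hours, 96-well plates. Abbreviation: GI50, concentration required for 50% inhibition of growth. TGI: total growth inhibition.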

Legend:
Experiment in all cases: inhibition of tumour cell growth, NCI panel, 48 h
[1] = test system: SN12C renal
[2] = test system: UACC-257 melanoma
[3] = test system: NCI-H23 lung
[4] = test system: LOX IMVI melanoma
[5] = test system: OVCAR-5 ovarian
[6] = test system: SK-MEL-2 melanoma
[7] = test system: MCF7 breast
[8] = test system: HCT-15 colon
[9] = test system: HCT-116 colon
[10] = test system: OVCAR-3 ovarian
[11] = test system: SNB-19 CNS
[12] = test system: CAKI-1 renal

`c1ccc2c(c1)SP1Sc3ccccc3P21` (configuration not stated) was tested, and the TGI [1] was over 100 µM, the TGI [2] was over 100 µM and the TGI [3] was over 100 µM. It also gave a TGI [4] of over 100 µM, a TGI [5] of over 100 µM and a TGI [6] of over 100 µM. For the same compound, the TGI [7] was over 100 µM, the TGI [8] was over 100 µM and the TGI [9] was over 100 µM. It also gave a TGI [10] of over 100 µM and a TGI [11] of over 31.6 µM.

`CC(=O)OC1CC(OC2C(O)CC(OC3C(O)CC(OC4CCC5(C)C(CCC6C5CCC5(C)C(C7=CC(=O)OC7)CCC65O)C4)OC3C)OC2C)OC(C)C1OC1OC(CO)C(O)C(O)C1O` (configuration not stated) showed a TGI [1] of 0.286 µM, a TGI [2] of 0.422 µM and a TGI [3] of 0.0233 µM. The TGI [4] was 0.0685 µM, the TGI [5] was 0.116 µM and the TGI [12] was under 0.0321 µM. It also gave a TGI [6] of 0.245 µM, a TGI [7] of 0.536 µM and a TGI [8] of 0.0679 µM. It also gave a TGI [9] of 0.0472 µM, a TGI [10] of 0.0883 µM and a TGI [11] of 0.348 µM.

`O=C1C(c2c(O)[nH]c3ccc(Cl)cc23)=Nc2ccccc21` was tested, and the TGI [1] was over 100 µM, the TGI [2] was over 100 µM and the TGI [3] was 40.1 µM. The TGI [4] was over 79.7 µM, the TGI [5] was over 28.1 µM and the TGI [12] was over 71.6 µM. It also gave a TGI [6] of over 26.3 µM, a TGI [7] of over 22 µM and a TGI [8] of over 100 µM. For the same compound, the TGI [9] was 5.18 µM, the TGI [10] was 17.9 µM and the TGI [11] was over 81.4 µM.

Work on `COCCNCc1ccc(-c2cc3nccc(Oc4ccc(NC(=O)C5(C(=O)Nc6ccc(F)cc6)CC5)cc4F)c3s2)nc1` yielded a GI50 [2] of 1.59 µM, a TGI [2] of 3.33 µM and a GI50 [12] of 2.08 µM. It also gave a TGI [12] of 4.83 µM, a GI50 [6] of 1.82 µM and a TGI [6] of 3.6 µM. The GI50 [7] was 1.22 µM, the TGI [7] was 3.58 µM and the GI50 [8] was 1.68 µM. For the same compound, the TGI [8] was 4.57 µM, the GI50 [9] was 1.78 µM and the TGI [9] was 3.92 µM. It also gave a GI50 [10] of 2.2 µM and a TGI [10] of 4.82 µM.

With `COC(=O)c1sc2c(c1C(=O)OC)C(=NC(C)(C)C)SC2=NC(C)(C)C` the TGI [1] was 34.5 µM, the TGI [2] was 32.6 µM and the TGI [3] was 34.5 µM. The TGI [4] was 38.6 µM, the TGI [5] was 37.2 µM and the TGI [12] was 32.6 µM. It also gave a TGI [6] of 33.1 µM, a TGI [7] of 33.1 µM and a TGI [8] of 34.3 µM. For the same compound, the TGI [9] was 30.5 µM, the TGI [10] was 36.9 µM and the TGI [11] was 35.8 µM.

With `COc1cc(NCCC(=O)O)c2ncccc2c1` the TGI [1] was over 100 µM, the TGI [2] was over 100 µM and the TGI [3] was over 100 µM. It also gave a TGI [4] of over 100 µM, a TGI [5] of over 100 µM and a TGI [6] of over 100 µM. The TGI [8] was over 100 µM, the TGI [9] was over 100 µM and the TGI [10] was over 100 µM. For the same compound, the TGI [11] was over 100 µM.

Compound `Cc1ccc(C(C)C)c(OCC(=O)N/N=C/c2c[nH]c3ccc(Br)cc23)c1` has a TGI [1] of 13 µM, a TGI [2] of 15.9 µM and a TGI [3] of 14.2 µM. The TGI [4] was 16.4 µM, the TGI [5] was 17.6 µM and the TGI [12] was 11.5 µM. It also gave a TGI [6] of 7.22 µM, a TGI [7] of 11.2 µM and a TGI [8] of 14.9 µM. It also gave a TGI [9] of 11 µM, a TGI [10] of 5.92 µM and a TGI [11] of 9.59 µM.

Compound `Clc1cc(OCc2nn3c(Cc4ccccc4)nnc3s2)c(Cl)cc1OCc1nn2c(Cc3ccccc3)nnc2s1` has a TGI [1] of over 100 µM, a TGI [2] of over 100 µM and a TGI [3] of over 100 µM. It also gave a TGI [4] of over 100 µM, a TGI [5] of over 100 µM and a TGI [12] of over 100 µM. It also gave a TGI [6] of over 100 µM, a TGI [7] of over 100 µM and a TGI [8] of over 100 µM. It also gave a TGI [9] of over 100 µM, a TGI [10] of over 100 µM and a TGI [11] of 95.8 µM.

Compound `CN(C)c1cccc(OC(=O)NCCCl)c1` has a TGI [1] of over 100 µM, a TGI [2] of over 100 µM and a TGI [3] of over 100 µM. For the same compound, the TGI [4] was over 100 µM, the TGI [5] was over 100 µM and the TGI [12] was over 100 µM. The TGI [6] was over 100 µM, the TGI [7] was over 100 µM and the TGI [8] was over 100 µM. The TGI [9] was over 100 µM, the TGI [10] was over 100 µM and the TGI [11] was over 100 µM.

`O=C(Sc1n[nH]c(=O)[nH]c1=O)c1cccc2nc3ccccc3nc12` showed a TGI [1] of over 100 µM, a TGI [2] of 39 µM and a TGI [3] of 26.8 µM. It also gave a TGI [4] of over 100 µM, a TGI [5] of over 100 µM and a TGI [12] of over 100 µM. It also gave a TGI [6] of over 100 µM, a TGI [7] of over 100 µM and a TGI [8] of over 100 µM. The TGI [9] was over 100 µM, the TGI [10] was over 100 µM and the TGI [11] was over 100 µM.

`Cc1cccc2c1Sc1ccccc1C2NC(=O)CN(C)C` (configuration not stated) gave a TGI [1] of over 100 µM, a TGI [2] of over 100 µM and a TGI [3] of over 100 µM. It also gave a TGI [4] of over 100 µM, a TGI [5] of over 100 µM and a TGI [8] of over 100 µM. The TGI [9] was over 100 µM and the TGI [11] was over 100 µM.

For `Nc1ccc(Cn2ccc3c4c(N)nc(N)nc4ccc32)cc1`, the TGI [1] was 8.67 µM, the TGI [2] was 8.02 µM and the TGI [3] was 7.86 µM. It also gave a TGI [4] of 1.21 µM, a TGI [5] of 19.4 µM and a TGI [12] of 18 µM. For the same compound, the TGI [6] was 5.15 µM, the TGI [7] was 14.3 µM and the TGI [8] was 17.6 µM. For the same compound, the TGI [9] was 1.5 µM, the TGI [10] was 2.51 µM and the TGI [11] was 17.6 µM.

In the case of `Cc1ccc(Nc2nc(=O)c3c([nH]c4ccccc43)s2)cc1`, the TGI [1] is reported as 31.6 µM, the TGI [2] is reported as 31.5 µM and the TGI [4] is reported as 27.1 µM. The TGI [12] was 24.5 µM, the TGI [6] was 31.3 µM and the TGI [8] was 23.1 µM. For the same compound, the TGI [10] was 27.3 µM and the TGI [11] was over 100 µM.

Work on `c1ccc2c(c1)SCCc1cn[nH]c1-2` yielded a TGI [1] of over 100 µM, a TGI [2] of over 100 µM and a TGI [3] of over 100 µM. It also gave a TGI [4] of over 100 µM, a TGI [5] of over 100 µM and a TGI [12] of over 100 µM. For the same compound, the TGI [6] was over 100 µM, the TGI [7] was over 100 µM and the TGI [8] was over 100 µM. The TGI [9] was over 100 µM, the TGI [10] was over 100 µM and the TGI [11] was over 100 µM.

For `CO/C=C1\OC(=O)C=C1OC`, the TGI [1] was over 100 µM, the TGI [2] was over 100 µM and the TGI [3] was over 100 µM. It also gave a TGI [4] of over 100 µM, a TGI [5] of over 100 µM and a TGI [12] of over 100 µM. It also gave a TGI [6] of over 100 µM, a TGI [7] of over 100 µM and a TGI [8] of over 100 µM. The TGI [9] was over 100 µM, the TGI [10] was over 100 µM and the TGI [11] was over 100 µM.

Compound `NNC(=O)c1cc([N+](=O)[O-])ccc1NC(=O)C12CC3CC(CC(C3)C1)C2` has a TGI [1] of over 100 µM, a TGI [2] of 59.3 µM and a TGI [3] of over 100 µM. The TGI [4] was 20.1 µM, the TGI [5] was over 100 µM and the TGI [12] was over 100 µM. It also gave a TGI [7] of over 100 µM, a TGI [8] of 3.42 µM and a TGI [9] of over 100 µM. For the same compound, the TGI [10] was 84.3 µM and the TGI [11] was 21.4 µM.

For `c1csc(-c2ccc(CNc3c4ccccc4nc4ccccc34)cc2)c1`, the GI50 [1] was 9.15 µM, the TGI [1] was 28.8 µM and the GI50 [2] was 2 µM. The TGI [2] was 4.06 µM, the GI50 [12] was 1.46 µM and the TGI [12] was 5.61 µM. It also gave a GI50 [6] of 2.11 µM, a TGI [6] of 4.79 µM and a GI50 [10] of 1.58 µM. It also gave a TGI [10] of 2.97 µM.
